Results: patent US5593984A, “Cephalosporin derivatives” (Yuhan Corporation, priority 1992, dated 1997)
≈ marks a conversion by molar mass, not a printed value.

What was measured:
Format in all cases: cell-based
B. subtilis ATCC 6633 = assay: MIC by agar dilution, B. subtilis ATCC 6633; details: Bacillus subtilis, ATCC6633, 17 h; B. subtilis ATCC 6633; agar dilution, Mueller-Hinton agar; read-out: Minimal Inhibitory Concentration (MIC)
How it was run: (§1)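 Agar dilution MIC: Mueller-Hinton agar, 2-fold compound series, inoculum 10^6 CFU/ml, 35°-37° C., 17±1 h.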

Staph. aureus ATCC 6538P = assay: MIC by agar dilution, Staph. aureus ATCC 6538P; details: Staphylococcus aureus, ATCC6538P, 17 h; Staph. aureus ATCC 6538P; agar dilution, Mueller-Hinton agar; read-out: Minimal Inhibitory Concentration (MIC)
How it was run: as §1

Staph. aureus Smith = assay: MIC by agar dilution, Staph. aureus Smith; details: Staphylococcus aureus, 17 h, Mueller-Hinton agar, read-out: Minimal Inhibitory Concentration (MIC)
How it was run: as §1

Staph. aureus C-57 = assay: MIC by agar dilution, Staph. aureus C-57; details: Staphylococcus aureus, C57, 17 h, Mueller-Hinton agar, read-out: Minimal Inhibitory Concentration (MIC)
How it was run: as §1

Staph. aureus C-5113 = assay: MIC by agar dilution, Staph. aureus C-5113; details: Staphylococcus aureus, C5113, 17 h, Mueller-Hinton agar, read-out: Minimal Inhibitory Concentration (MIC)
How it was run: as §1

Staph. aureus C-5216 = assay: MIC by agar dilution, Staph. aureus C-5216; details: Staphylococcus aureus, C5216, 17 h, Mueller-Hinton agar, read-out: Minimal Inhibitory Concentration (MIC)
How it was run: as §1

[1] = tested on: S. epidermidis ATCC 12228; assay: MIC by agar dilution, S. epidermidis ATCC 12228; details: Staphylococcus epidermidis, ATCC12228, 17 h; S. epidermidis ATCC 12228; agar dilution, Mueller-Hinton agar; read-out: Minimal Inhibitory Concentration (MIC)
How it was run: as §1

Ent. aerogenes IFO 12979 = assay: MIC by agar dilution, Ent. aerogenes IFO 12979; details: Klebsiella aerogenes, IFO12979, 17 h, Mueller-Hinton agar, read-out: Minimal Inhibitory Concentration (MIC)
How it was run: as §1

Ent. cloacae IFO 13535 = assay: MIC by agar dilution, Ent. cloacae IFO 13535; details: Enterobacter cloacae, IFO13535, 17 h; Ent. cloacae IFO 13535; agar dilution, Mueller-Hinton agar; read-out: Minimal Inhibitory Concentration (MIC)
How it was run: as §1

E. coli NIHJ JC-2 = assay: MIC by agar dilution, E. coli NIHJ JC-2; details: Escherichia coli, NIHJJC2, 17 h; E. coli NIHJ JC-2; agar dilution, Mueller-Hinton agar; read-out: Minimal Inhibitory Concentration (MIC)
How it was run: as §1

E. coli No. 29 = assay: MIC by agar dilution, E. coli No. 29; details: Escherichia coli, 17 h; E. coli No. 29; agar dilution, Mueller-Hinton agar; read-out: Minimal Inhibitory Concentration (MIC)
How it was run: as §1

E. coli DY-1 = assay: MIC by agar dilution, E. coli DY-1; details: Escherichia coli, DY1, 17 h; E. coli DY-1; agar dilution, Mueller-Hinton agar; read-out: Minimal Inhibitory Concentration (MIC)
How it was run: as §1

K. pneumoniae NCTC 9632 = assay: MIC by agar dilution, K. pneumoniae NCTC 9632; details: Klebsiella pneumoniae, NCTC9632, 17 h; K. pneumoniae NCTC 9632; agar dilution, Mueller-Hinton agar; read-out: Minimal Inhibitory Concentration (MIC)
How it was run: as §1

M. morganii DY-1 = assay: MIC by agar dilution, M. morganii DY-1; details: Morganella morganii, DY1, 17 h; M. morganii DY-1; agar dilution, Mueller-Hinton agar; read-out: Minimal Inhibitory Concentration (MIC)
How it was run: as §1

[2] = tested on: Ps. aeruginosa ATCC 10145; assay: MIC by agar dilution, Ps. aeruginosa ATCC 10145; details: Pseudomonas aeruginosa, ATCC10145, 17 h, Mueller-Hinton agar, read-out: Minimal Inhibitory Concentration (MIC)
How it was run: as §1

[3] = tested on: Ps. aeruginosa NCTC 10490; assay: MIC by agar dilution, Ps. aeruginosa NCTC 10490; details: Pseudomonas aeruginosa, NCTC10490, 17 h, Mueller-Hinton agar, read-out: Minimal Inhibitory Concentration (MIC)
How it was run: as §1

Ps. aeruginosa DY-2 = assay: MIC by agar dilution, Ps. aeruginosa DY-2; details: Pseudomonas aeruginosa, DY2, 17 h; Ps. aeruginosa DY-2; agar dilution, Mueller-Hinton agar; read-out: Minimal Inhibitory Concentration (MIC)
How it was run: as §1

P. vulgaris NCTC 8313 = assay: MIC by agar dilution, P. vulgaris NCTC 8313; details: Proteus vulgaris, NCTC8313, 17 h; P. vulgaris NCTC 8313; agar dilution, Mueller-Hinton agar; read-out: Minimal Inhibitory Concentration (MIC)
How it was run: as §1

Prov. stuartii IFO 12930 = assay: MIC by agar dilution, Prov. stuartii IFO 12930; details: Providencia stuartii, IFO12930, 17 h, Mueller-Hinton agar, read-out: Minimal Inhibitory Concentration (MIC)
How it was run: as §1

[4] = tested on: Ser. marcescens IFO 12648; assay: MIC by agar dilution, Ser. marcescens IFO 12648; details: Serratia marcescens, IFO12648, 17 h; Ser. marcescens IFO 12648; agar dilution, Mueller-Hinton agar; read-out: Minimal Inhibitory Concentration (MIC)
How it was run: as §1

In the case of CCO/N=C(\C(=O)N[C@@H]1C(=O)N2C(C(=O)[O-])=C(C[n+]3cc(CC)n4cccc4c3)CS[C@H]12)c1csc(N)n1 [Ex. 38, 7-β-[(Z)-2-(2-aminothiazol-4-yl)-2-ethoxyiminoacetamido]-3-(4-ethylpyrrolo[1,2-a]pyrazinium-2-yl)methyl-3-cephem-4-carboxylate], the MIC (B. subtilis ATCC 6633) was 0.2 µg/mL (≈ 0.36 µM), the MIC (Staph. aureus ATCC 6538P) was 0.2 µg/mL (≈ 0.36 µM) and the MIC (Staph. aureus Smith) was 0.39 µg/mL (≈ 0.702 µM). For the same compound, the MIC (Staph. aureus C-57) was 12.5 µg/mL (≈ 22.5 µM), the MIC (Staph. aureus C-5113) was 1.56 µg/mL (≈ 2.81 µM) and the MIC (Staph. aureus C-5216) was 1.56 µg/mL (≈ 2.81 µM). For the same compound, the MIC [1] was 0.1 µg/mL (≈ 0.18 µM), the MIC (Ent. aerogenes IFO 12979) was 0.025 µg/mL (≈ 0.045 µM) and the MIC (Ent. cloacae IFO 13535) was 0.2 µg/mL (≈ 0.36 µM). For the same compound, the MIC (E. coli NIHJ JC-2) was 0.05 µg/mL (≈ 0.09 µM), the MIC (E. coli No. 29) was at most 0.006 µg/mL and the MIC (E. coli DY-1) was at most 0.006 µg/mL. It also gave an MIC (K. pneumoniae NCTC 9632) of 0.05 µg/mL (≈ 0.09 µM), an MIC (M. morganii DY-1) of 0.05 µg/mL (≈ 0.09 µM) and an MIC [2] of 3.13 µg/mL (≈ 5.63 µM). It also gave an MIC [3] of 0.78 µg/mL (≈ 1.4 µM), an MIC (Ps. aeruginosa DY-2) of 3.13 µg/mL (≈ 5.63 µM) and an MIC (P. vulgaris NCTC 8313) of 0.012 µg/mL (≈ 0.0216 µM). For the same compound, the MIC (Prov. stuartii IFO 12930) was 0.05 µg/mL (≈ 0.09 µM) and the MIC [4] was 0.05 µg/mL (≈ 0.09 µM).
In the case of CC(C)(ON=C(C(=O)NC1C(=O)N2C(C(=O)[O-])=C(C[n+]3ccn4c(CO)ccc4c3)CSC12)c1csc(N)n1)C(=O)O (stereo not drawn) [Ex. 24, 7-β-[(Z)-2-(2-aminothiazol-4-yl)-2-(2-carboxyprop-2-oxyimino)acetamido]-3-(6hydroxymethylpyrrolo[1,2-a]pyrazinium-2-yl)methyl-3-cephem-4-carboxylate], the MIC (B. subtilis ATCC 6633) was 1.56 µg/mL (≈ 2.53 µM), the MIC (Staph. aureus ATCC 6538P) was 0.39 µg/mL (≈ 0.633 µM) and the MIC (Staph. aureus Smith) was 3.13 µg/mL (≈ 5.08 µM). For the same compound, the MIC (Staph. aureus C-57) was 100 µg/mL (≈ 162 µM), the MIC (Staph. aureus C-5113) was 1.56 µg/mL (≈ 2.53 µM) and the MIC (Staph. aureus C-5216) was 6.25 µg/mL (≈ 10.2 µM). For the same compound, the MIC [1] was 0.39 µg/mL (≈ 0.633 µM), the MIC (Ent. aerogenes IFO 12979) was 0.2 µg/mL (≈ 0.325 µM) and the MIC (Ent. cloacae IFO 13535) was 6.25 µg/mL (≈ 10.2 µM). It also gave an MIC (E. coli NIHJ JC-2) of 3.13 µg/mL (≈ 5.08 µM), an MIC (E. coli No. 29) of 1.56 µg/mL (≈ 2.53 µM) and an MIC (E. coli DY-1) of 0.78 µg/mL (≈ 1.27 µM). The MIC (K. pneumoniae NCTC 9632) was 0.78 µg/mL (≈ 1.27 µM), the MIC (M. morganii DY-1) was 0.78 µg/mL (≈ 1.27 µM) and the MIC [2] was 12.5 µg/mL (≈ 20.3 µM). It also gave an MIC [3] of 6.25 µg/mL (≈ 10.2 µM), an MIC (Ps. aeruginosa DY-2) of 25 µg/mL (≈ 40.6 µM) and an MIC (P. vulgaris NCTC 8313) of 0.05 µg/mL (≈ 0.0812 µM). The MIC (Prov. stuartii IFO 12930) was 0.39 µg/mL (≈ 0.633 µM) and the MIC [4] was 0.39 µg/mL (≈ 0.633 µM).
In the case of CO/N=C(\C(=O)N[C@@H]1C(=O)N2C(C(=O)[O-])=C(C[n+]3ccn4cccc4c3)CS[C@H]12)c1nsc(N)n1 [Ex. 48, 7-β-[(Z)-2-(5-amino-1,2,4-thiadiazol-3-yl)-2-methoxyiminoacetamido]-3-(pyrrolo [1,2-a]pyrazinium-2-yl)methyl-3-cephem-4-carboxylate], the MIC (B. subtilis ATCC 6633) was 0.2 µg/mL (≈ 0.389 µM), the MIC (Staph. aureus ATCC 6538P) was 0.39 µg/mL (≈ 0.758 µM) and the MIC (Staph. aureus Smith) was 0.78 µg/mL (≈ 1.52 µM). For the same compound, the MIC (Staph. aureus C-57) was 6.25 µg/mL (≈ 12.1 µM), the MIC (Staph. aureus C-5113) was 0.78 µg/mL (≈ 1.52 µM) and the MIC (Staph. aureus C-5216) was 0.78 µg/mL (≈ 1.52 µM). It also gave an MIC [1] of 0.1 µg/mL (≈ 0.194 µM), an MIC (Ent. aerogenes IFO 12979) of 0.012 µg/mL (≈ 0.0233 µM) and an MIC (Ent. cloacae IFO 13535) of 0.025 µg/mL (≈ 0.0486 µM). The MIC (E. coli NIHJ JC-2) was 0.012 µg/mL (≈ 0.0233 µM), the MIC (E. coli No. 29) was 0.012 µg/mL (≈ 0.0233 µM) and the MIC (E. coli DY-1) was 0.025 µg/mL (≈ 0.0486 µM). It also gave an MIC (K. pneumoniae NCTC 9632) of 0.025 µg/mL (≈ 0.0486 µM), an MIC (M. morganii DY-1) of 0.05 µg/mL (≈ 0.0972 µM) and an MIC [2] of 0.39 µg/mL (≈ 0.758 µM). For the same compound, the MIC [3] was 0.1 µg/mL (≈ 0.194 µM), the MIC (Ps. aeruginosa DY-2) was 0.78 µg/mL (≈ 1.52 µM) and the MIC (P. vulgaris NCTC 8313) was 0.012 µg/mL (≈ 0.0233 µM). For the same compound, the MIC (Prov. stuartii IFO 12930) was at most 0.006 µg/mL and the MIC [4] was 0.025 µg/mL (≈ 0.0486 µM).
With CON=C(C(=O)NC1C(=O)N2C(C(=O)[O-])=C(C[n+]3ccn4c(SCCN)ccc4c3)CSC12)c1csc(N)n1 (stereo not drawn) [Ex. 27, 7-β-[(Z)-2-(2-aminothiazol-4-yl)2-methoxyiminoacetamido]-3-[6-(2-aminoethylthio)pyrrolo[1,2-a]pyrazinium-2-yl]methyl-3-cephem-4-carboxylate] the MIC (B. subtilis ATCC 6633) was 0.1 µg/mL (≈ 0.17 µM), the MIC (Staph. aureus ATCC 6538P) was 0.2 µg/mL (≈ 0.34 µM) and the MIC (Staph. aureus Smith) was 0.78 µg/mL (≈ 1.32 µM). For the same compound, the MIC (Staph. aureus C-57) was 100 µg/mL (≈ 170 µM), the MIC (Staph. aureus C-5113) was 0.78 µg/mL (≈ 1.32 µM) and the MIC (Staph. aureus C-5216) was 0.78 µg/mL (≈ 1.32 µM). The MIC [1] was 0.05 µg/mL (≈ 0.0849 µM), the MIC (Ent. aerogenes IFO 12979) was at most 0.006 µg/mL and the MIC (Ent. cloacae IFO 13535) was 0.1 µg/mL (≈ 0.17 µM). The MIC (E. coli NIHJ JC-2) was at most 0.006 µg/mL, the MIC (E. coli No. 29) was at most 0.006 µg/mL and the MIC (E. coli DY-1) was at most 0.006 µg/mL. It also gave an MIC (K. pneumoniae NCTC 9632) of 0.012 µg/mL (≈ 0.0204 µM), an MIC (M. morganii DY-1) of 0.012 µg/mL (≈ 0.0204 µM) and an MIC [2] of 0.78 µg/mL (≈ 1.32 µM). It also gave an MIC [3] of 0.2 µg/mL (≈ 0.34 µM), an MIC (Ps. aeruginosa DY-2) of 1.56 µg/mL (≈ 2.65 µM) and an MIC (P. vulgaris NCTC 8313) of at most 0.006 µg/mL. The MIC (Prov. stuartii IFO 12930) was at most 0.006 µg/mL and the MIC [4] was 0.012 µg/mL (≈ 0.0204 µM).
